# ChEMBL document CHEMBL5053508, “Optimization of Beclin 1-Targeting Stapled Peptides by Staple Scanning Leads to Enhanced Antiproliferative Potency in Cancer Cells” (J Med Chem, 2021)
# Legend:
# Type in all cases: functional
# [1] = system: SK-BR-3; test: Induction of apoptosis in human SK-BR-3 cells assessed as dead cells at 10 uM measured after 24 hrs by annexin V-FITC/PI staining based flow cytometry analysis (Rvb= 5.0%)
# [2] = system: SK-BR-3; test: Induction of apoptosis in human SK-BR-3 cells assessed as late apoptotic cells at 40 uM incubated for 24 hrs by flow cytometry with Annexin V-FITC/propidium iodide staining based flow cytometry assay (Rvb= 2.2%)
# [3] = system: SK-BR-3; test: Induction of apoptosis in human SK-BR-3 cells assessed as early apoptotic cells at 10 uM measured after 24 hrs by annexin V-FITC/PI staining based flow cytometry analysis (Rvb= 2.2%)
# [4] = system: SK-BR-3; test: Induction of apoptosis in human SK-BR-3 cells assessed as live cells at 5 uM measured after 24 hrs by annexin V-FITC/PI staining based flow cytometry analysis (Rvb= 90.6%)
# [5] = system: SK-BR-3; test: Induction of apoptosis in human SK-BR-3 cells assessed as live cells at 20 uM measured after 24 hrs by annexin V-FITC/PI staining based flow cytometry analysis (Rvb= 90.6%)
# [6] = system: SK-BR-3; test: Induction of apoptosis in human SK-BR-3 cells assessed as dead cells at 20 uM measured after 24 hrs by annexin V-FITC/PI staining based flow cytometry analysis (Rvb= 5.0%)
# [7] = system: SK-BR-3; test: Induction of apoptosis in human SK-BR-3 cells assessed as late apoptotic cells at 20 uM incubated for 24 hrs by flow cytometry with Annexin V-FITC/propidium iodide staining based flow cytometry assay (Rvb= 2.2%)
# [8] = system: SK-BR-3; test: Induction of apoptosis in human SK-BR-3 cells assessed as late apoptotic cells at 10 uM incubated for 24 hrs by flow cytometry with Annexin V-FITC/propidium iodide staining based flow cytometry assay (Rvb= 2.2%)
# [9] = system: SK-BR-3; test: Induction of apoptosis […] in human SK-BR-3 cells assessed as late apoptotic cells at 5 uM incubated for 24 hrs by flow cytometry with Annexin V-FITC/propidium iodide staining based flow cytometry analysis (Rvb= 2.2%)
# [10] = system: SK-BR-3; test: Induction of apoptosis in human SK-BR-3 cells assessed as live cells at 40 uM measured after 24 hrs by annexin V-FITC/PI staining based flow cytometry analysis (Rvb= 90.6%)
# [11] = system: SK-BR-3; test: Antiproliferative activity against human SK-BR-3 cells assessed as reduction in cell growth at 20 uM incubated for 5 days by trypan blue exclusion assay relative to control; parameters: scale not given: the % may be the effect or the level left; conditions: time 5 day
# [12] = system: SK-BR-3; test: Induction of apoptosis in human SK-BR-3 cells assessed as early apoptotic cells at 40 uM measured after 24 hrs by annexin V-FITC/PI staining based flow cytometry analysis (Rvb= 2.2%)
# [13] = system: SK-BR-3; test: Induction of apoptosis in human SK-BR-3 cells assessed as live cells at 10 uM measured after 24 hrs by annexin V-FITC/PI staining based flow cytometry analysis (Rvb= 90.6%)
# [14] = system: SK-BR-3; test: Induction of apoptosis in human SK-BR-3 cells assessed as dead cells at 40 uM measured after 24 hrs by annexin V-FITC/PI staining based flow cytometry analysis (Rvb= 5.0%)
# [15] = system: SK-BR-3; test: Induction of apoptosis in human SK-BR-3 cells assessed as dead cells at 5 uM measured after 24 hrs by annexin V-FITC/PI staining based flow cytometry analysis (Rvb= 5.0%)
# [16] = system: SK-BR-3; test: Induction of apoptosis in human SK-BR-3 cells assessed as early apoptotic cells at 20 uM measured after 24 hrs by annexin V-FITC/PI staining based flow cytometry analysis (Rvb= 2.2%)
# [17] = system: SK-BR-3; test: Induction of apoptosis in human SK-BR-3 cells assessed as early apoptotic cells at 5 uM measured after 24 hrs by annexin V-FITC/PI staining based flow cytometry analysis (Rvb= 2.2%)
structure (smiles),measurement,setting,value
CC[C@H](C)[C@H](NC(=O)[C@H](CC(C)C)NC(=O)[C@H](CCCNC(=N)N)NC(=O)[C@H](CCCNC(=N)N)NC(=O)[C@H](CCCNC(=N)N)NC(=O)[C@H](CCCNC(=N)N)NC(=O)[C@H](CCC(N)=O)NC(=O)[C@H](CCCNC(=N)N)NC(=O)[C@H](CCCNC(=N)N)NC(=O)[C@H](CCCCN)NC(=O)[C@H](CCCCN)NC(=O)[C@H](CCCNC(=N)N)NC(=O)CNC(=O)[C@H](Cc1ccc(O)cc1)NC(C)=O)C(=O)N[C@@H](CO)C(=O)N[C@@H](CCC(=O)O)C(=O)N[C@@H](CC(C)C)C(=O)N[C@@H]1CCCCCC/C=C/CCC[C@@H](C(=O)N[C@@H](C)C(N)=O)NC(=O)[C@H](CCCNC(=N)N)NC(=O)[C@H](CCC(N)=O)NC(=O)[C@H](CCCCN)NC(=O)[C@H](CCC(=O)O)NC(=O)[C@H](CCCNC(=N)N)NC(=O)[C@H](CC(=O)O)NC1=O,Activity,[1],0.8%
same,Activity,[2],21.6%
same,Activity,[3],0.2%
same,Activity,[4],91%
same,Activity,[5],89%
same,Activity,[6],3.5%
same,Activity,[7],6.1%
same,Activity,[8],8.1%
same,Activity,[9],8.2%
same,Activity,[10],76.1%
same,Activity,[11],30%
same,Activity,[12],0.8%
same,Activity,[13],90.6%
same,Activity,[14],1.5%
same,Activity,[15],0.4%
same,Activity,[16],1.1%
same,Activity,[17],0.2%
